Data taken from PMC12467433, “Isoniazid-Derived Hydrazones Featuring Piperazine/Piperidine Rings: Design, Synthesis, and Investigation of Antitubercular Activity” (Biomolecules, 2025).
Values after ≈ are worked out from the molar mass of the structure shown. Read-outs that look alike come from different tables or passages of the source.

Legend:
Mtb H37Rv = assay: Microplate Alamar Blue Assay (MABA), Mtb H37Rv; assay type: cell-based, Mycobacterium tuberculosis; details: for MIC: MABA, one-week incubation
InhA = biological target: T1, InhA (Mycobacterium tuberculosis, UniProt P9WGR1); assay: InhA inhibition (NADH oxidation at 340 nm, DDCoA substrate); assay type: biochemical; details: for inhibition at 50 µM: at 50 μM concentration, NI: No inhibition
T1 construct: made in house
T1 sequence (P9WGR1 whole entry, looked up): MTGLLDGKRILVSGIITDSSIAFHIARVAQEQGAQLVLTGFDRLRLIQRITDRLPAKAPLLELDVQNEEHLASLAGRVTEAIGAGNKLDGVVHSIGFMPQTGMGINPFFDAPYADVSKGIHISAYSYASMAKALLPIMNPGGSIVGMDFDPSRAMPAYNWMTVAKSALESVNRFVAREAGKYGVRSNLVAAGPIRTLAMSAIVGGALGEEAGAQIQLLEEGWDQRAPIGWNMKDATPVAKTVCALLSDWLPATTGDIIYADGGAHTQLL

[1] = MTT cytotoxicity assay, HEK 293; assay type: cell-based; details: human, HEK 293 cells, HEK 293, MTT, triplicate, read-out: Toxicity IC50
Description: (§1) 2.2.2. Assay for Host Cytotoxicity Determination
(§2) The MTT (3-(4,5-dimethylthiazol-2-yl)-2,5-diphenyltetrazolium bromide) assay was applied to determine the cytotoxicity of the synthesized molecules against Human Embryonic Kidney cells (HEK 293) and adenocarcinomic human alveolar basal epithelial cells (A549) cell lines, obtained from the American Type Culture Collection (ATCC) with the accession numbers ATCC CRL-1573 and ATCC CCL-185, respectively. […] A vehicle control containing 1% DMSO in culture medium without any compound was included to account for any solvent-related effects. Cells were seeded at a density of 1 × 10^4 cells per well in a sterile 96-well microtiter plate and incubated for 24 h to allow attachment. Following this, the compounds were added in ten-fold serial dilutions ranging from 100 μM to 0.001 μM, and the plates were incubated for 48 h at 37 °C with 5% CO2.
(§3) After incubation, the medium was removed and replaced with 10 μL of MTT solution (5 mg/mL) in each well, followed by a 3 h incubation under the same conditions. The MTT reagent was then discarded, and 100 μL of DMSO was added to each well to solubilize the formazan crystals. Absorbance was measured at 580 nm using a Thermo Scientific Varioskan LUX microplate reader, with blanks subtracted from each value. All experiments were performed in three independent biological replicates, for every concentration tested. The IC50 values were calculated using GraphPad Prism 10.6.0 [28, 29].

[2] = MTT cytotoxicity assay, A549; assay type: cell-based; details: human, A549 cells, triplicate, read-out: Toxicity IC50
Description: as §1, §2, §3

[3] = Mycobacterium tuberculosis, H37RV, 168 h

In the case of O=C(NN=Cc1ccc(N2CCN(c3ccc(Cl)cc3)CC2)cc1)c1ccncc1 [IP3, N′-(4-(4-(4-Chlorophenyl)piperazin-1-yl)benzylidene)isonicotinohydrazide], the MIC (Mtb H37Rv; [3]) is reported as 50 µM (≈ 21 µg/mL) and the inhibition at 50 µM (InhA) is reported as 21%.
O=C(NN=Cc1ccc(N2CCN(c3ncccn3)CC2)cc1)c1ccncc1 [IP9, N′-(4-(4-(Pyrimidin-2-yl)piperazin-1-yl)benzylidene)isonicotinohydrazide] showed an IC50 at 48 h [1] greater than 100 µM, an MIC50 (Mtb H37Rv; Mycobacterium tuberculosis) of 0.79 ± 0.23 µM (≈ 0.306 µg/mL) and an MIC (Mtb H37Rv; [3]) of no more than 0.78 µM. For the same compound, the IC50 at 48 h [2] was greater than 100 µM and the inhibition at 50 µM (InhA) was less than 10%.
For O=C(NN=Cc1ccc(N2CCN(c3ccccn3)CC2)cc1)c1ccncc1 [IP8, N′-(4-(4-(Pyridin-2-yl)piperazin-1-yl)benzylidene)isonicotinohydrazide], the IC50 at 48 h [1] was greater than 100 µM, the MIC50 (Mtb H37Rv; Mycobacterium tuberculosis) was 0.31 ± 0.21 µM (≈ 0.12 µg/mL) and the MIC (Mtb H37Rv; [3]) was no more than 0.78 µM. It also gave an IC50 at 48 h [2] greater than 100 µM and an inhibition at 50 µM (InhA) of less than 10%.
COc1ccc(N2CCN(c3ccc(C=NNC(=O)c4ccncc4)cc3)CC2)cc1 [IP7, N′-(4-(4-(4-Methoxyphenyl)piperazin-1-yl)benzylidene)isonicotinohydrazide] showed an MIC50 (Mtb H37Rv; Mycobacterium tuberculosis) of 0.74 ± 0.1 µM (≈ 0.307 µg/mL), an MIC (Mtb H37Rv; [3]) of no more than 0.78 µM and an inhibition at 50 µM (InhA) of 10%.
For O=C(NN=Cc1ccc(N2CCN(C3CCCCC3)CC2)cc1)c1ccncc1 [IP11, N′-(4-(4-Cyclohexylpiperazin-1-yl)benzylidene)isonicotinohydrazide], the IC50 at 48 h [1] was greater than 100 µM, the MIC50 (Mtb H37Rv) was 0.29 µM (≈ 0.114 µg/mL) and the MIC50 (Mtb H37Rv; Mycobacterium tuberculosis) was 0.29 ± 0.05 µM (≈ 0.114 µg/mL). For the same compound, the MIC (Mtb H37Rv; [3]) was no more than 0.78 µM, the IC50 at 48 h [2] was greater than 100 µM and the inhibition at 50 µM (InhA) was 81%. The IC50 (InhA; read-out: IC50 against InhA enzyme) was 26.4 ± 3.97 µM.
Compound NNC(=O)c1ccncc1 [INH, isonicotinic acid hydrazide, reference compound] has an MIC50 (Mtb H37Rv; Mycobacterium tuberculosis) of 0.23 ± 0.04 µM (≈ 0.0315 µg/mL) and an MIC (Mtb H37Rv; [3]) of 0.39 µM (≈ 0.0535 µg/mL).
With Cc1ccc(N2CCN(c3ccc(C=NNC(=O)c4ccncc4)cc3)CC2)c(C)c1 [IP5, N′-(4-(4-(2,4-Dimethylphenyl)piperazin-1-yl)benzylidene)isonicotinohydrazide] the MIC (Mtb H37Rv; [3]) was 50 µM (≈ 20.7 µg/mL) and the inhibition at 50 µM (InhA) was 16%.
Compound CCOC(=O)C1CCN(c2ccc(C=NNC(=O)c3ccncc3)cc2)CC1 [IP12, Ethyl 1-(4-((2-isonicotinoylhydrazono)methyl)phenyl)piperidine-4-carboxylate] has an IC50 at 48 h [1] greater than 100 µM, an MIC50 (Mtb H37Rv; Mycobacterium tuberculosis) of 0.47 ± 0.05 µM (≈ 0.179 µg/mL) and an MIC (Mtb H37Rv; [3]) of no more than 0.78 µM. It also gave an IC50 at 48 h [2] greater than 100 µM and an inhibition at 50 µM (InhA) of 17%.
For O=C(NN=Cc1ccc(N2CCN(c3ccccc3F)CC2)cc1)c1ccncc1 [IP2, N′-(4-(4-(2-Fluorophenyl)piperazin-1-yl)benzylidene)isonicotinohydrazide], the MIC (Mtb H37Rv) was greater than 100 µM, the MIC (Mtb H37Rv; [3]) was greater than 100 µM and the inhibition at 50 µM (InhA) was 19%.
In the case of NC(=O)C1CCN(c2ccc(C=NNC(=O)c3ccncc3)cc2)CC1 [IP13, 1-(4-((2-Isonicotinoylhydrazono)methyl)phenyl)piperidine-4-carboxamide], the IC50 at 48 h [1] is reported as greater than 100 µM, the MIC50 (Mtb H37Rv; Mycobacterium tuberculosis) is reported as 0.53 ± 0.24 µM (≈ 0.186 µg/mL) and the MIC (Mtb H37Rv; [3]) is reported as no more than 0.78 µM. For the same compound, the IC50 at 48 h [2] was greater than 100 µM and the inhibition at 50 µM (InhA) was less than 10%.
O=C(NN=Cc1ccc(N2CCN(c3ccc(Br)cc3)CC2)cc1)c1ccncc1 [IP4, N′-(4-(4-(4-Bromophenyl)piperazin-1-yl)benzylidene)isonicotinohydrazide] gave an MIC (Mtb H37Rv; [3]) of 100 µM (≈ 46.4 µg/mL) and an inhibition at 50 µM (InhA) of less than 10%.
With O=C(NN=Cc1ccc(N2CCN(c3ccc(C(F)(F)F)cc3)CC2)cc1)c1ccncc1 [IP6, N′-(4-(4-(4-(Trifluoromethyl)phenyl)piperazin-1-yl)benzylidene)isonicotinohydrazide] the MIC (Mtb H37Rv; [3]) was 12.5 µM (≈ 5.67 µg/mL) and the inhibition at 50 µM (InhA) was 37%.
For CN1CCN(c2ccc(C=NNC(=O)c3ccncc3)cc2)CC1 [IP10, N′-(4-(4-Methylpiperazin-1-yl)benzylidene)isonicotinohydrazide], the IC50 at 48 h [1] was greater than 100 µM, the MIC50 (Mtb H37Rv; Mycobacterium tuberculosis) was 0.31 ± 0.04 µM (≈ 0.1 µg/mL) and the MIC (Mtb H37Rv; [3]) was no more than 0.78 µM. For the same compound, the IC50 at 48 h [2] was greater than 100 µM and the inhibition at 50 µM (InhA) was 30%.
In the case of O=C(NN=Cc1ccc(N2CCN(c3ccccc3)CC2)cc1)c1ccncc1 [IP1, N′-(4-(4-Phenylpiperazin-1-yl)benzylidene)isonicotinohydrazide], the MIC (Mtb H37Rv; [3]) is reported as 50 µM (≈ 19.3 µg/mL) and the inhibition at 50 µM (InhA) is reported as less than 10%.
